Laboratory results as given in patent US20220370396A1, “METHODS FOR MODULATING CONDITIONS OF THE EYE USING NOVEL LATANOPROST COMPOUND OPHTHALMIC COMPOSITIONS” (Somerset Therapeutics LLC, priority 2021, published 2022).

Assay: Comparative stability testing of latanoprost formulations under refrigerated, room temperature and accelerated conditions
Type: physicochemical
Protocol: Formulations prepared according to the invention as described in Example 1 were tested for stability under refrigerated conditions ((2-8° C.), […] (25° C./60% relative humidity) and accelerated conditions (40° C./75% relative humidity) to determine stability of such formulations. The stability data of the composition provided in Table 1 of Example 1 was also compared with Reference Product (XALATAN®). Stability results are provided in Table 3.
The stability data for the composition of Table 1, Example 1 (comprising the PCCC polyoxyl 40 hydrogenated castor oil), was compared to the composition of Table 2, Example 2, comprising the polysorbate-80.

- Effect of surfactant on stabilization of latanoprost formulations: marginal effect on stabilization
Substance: polysorbate-80
